Experimental data: ChEMBL document CHEMBL2439971, “Design, synthesis and antiproliferative evaluation of fluorenone analogs with DNA topoisomerase I inhibitory properties” (Bioorg Med Chem, 2013)
Active and inactive are the calls of the source. The calls are words filed in the database; no cut-off is given here.

Legend:
[1] = Cytotoxicity against human NCI60 cells; type: functional
Homo sapiens = species: Homo sapiens; experiment: Inhibition of telomerase (unknown origin) at 10 uM TRAP assay
CAKI-1 = experiment: Cytotoxicity against human CAKI-1 cells at 10 uM after 48 hrs by sulforhodamine B assay relative to control; type: functional
MDA-MB-468 = experiment: Cytotoxicity against human MDA-MB-468 cells at 10 uM after 48 hrs by sulforhodamine B assay relative to control; type: functional
T47D = experiment: Cytotoxicity against human T47D cells at 10 uM after 48 hrs by sulforhodamine B assay relative to control; type: functional
BT-549 = experiment: Cytotoxicity against human BT549 cells at 10 uM after 48 hrs by sulforhodamine B assay relative to control; type: functional
[2] = Cytotoxicity against human Hs 578T cells at 10 uM after 48 hrs by sulforhodamine B assay relative to control; type: functional
MDA-MB-231 = experiment: Cytotoxicity against human MDA-MB-231 cells at 10 uM after 48 hrs by sulforhodamine B assay relative to control; type: functional
MCF7 = experiment: Cytotoxicity against human MCF7 cells at 10 uM after 48 hrs by sulforhodamine B assay relative to control; type: functional
DU-145 = experiment: Cytotoxicity against human DU145 cells at 10 uM after 48 hrs by sulforhodamine B assay relative to control; type: functional
PC-3 [3] = experiment: Cytotoxicity against human PC3 cells at 10 uM after 48 hrs by sulforhodamine B assay relative to control; type: functional
UO-31 = experiment: Cytotoxicity against human UO31 cells at 10 uM after 48 hrs by sulforhodamine B assay relative to control; type: functional
TK-10 = experiment: Cytotoxicity against human TK10 cells at 10 uM after 48 hrs by sulforhodamine B assay relative to control; type: functional
SN12C = experiment: Cytotoxicity against human SN12C cells at 10 uM after 48 hrs by sulforhodamine B assay relative to control; type: functional
RXF 393 = experiment: Cytotoxicity against human RXF393 cells at 10 uM after 48 hrs by sulforhodamine B assay relative to control; type: functional
ACHN = experiment: Cytotoxicity against human ACHN cells at 10 uM after 48 hrs by sulforhodamine B assay relative to control; type: functional
786-0 = experiment: Cytotoxicity against human 786-0 cells at 10 uM after 48 hrs by sulforhodamine B assay relative to control; type: functional
NCI/ADR-RES = experiment: Cytotoxicity against human NCI/ADR-RES cells at 10 uM after 48 hrs by sulforhodamine B assay relative to control; type: functional
OVCAR-8 = experiment: Cytotoxicity against human OVCAR8 cells at 10 uM after 48 hrs by sulforhodamine B assay relative to control; type: functional
OVCAR-5 = experiment: Cytotoxicity against human OVCAR5 cells at 10 uM after 48 hrs by sulforhodamine B assay relative to control; type: functional
OVCAR-4 = experiment: Cytotoxicity against human OVCAR4 cells at 10 uM after 48 hrs by sulforhodamine B assay relative to control; type: functional
OVCAR-3 = experiment: Cytotoxicity against human OVCAR3 cells at 10 uM after 48 hrs by sulforhodamine B assay relative to control; type: functional
IGROV-1 = experiment: Cytotoxicity against human IGROV1 cells at 10 uM after 48 hrs by sulforhodamine B assay relative to control; type: functional
UACC-62 = experiment: Cytotoxicity against human UACC62 cells at 10 uM after 48 hrs by sulforhodamine B assay relative to control; type: functional
UACC-257 = experiment: Cytotoxicity against human UACC257 cells at 10 uM after 48 hrs by sulforhodamine B assay relative to control; type: functional
SK-MEL-5 = experiment: Cytotoxicity against human SK-MEL-5 cells at 10 uM after 48 hrs by sulforhodamine B assay relative to control; type: functional
SK-MEL-28 = experiment: Cytotoxicity against human SK-MEL-28 cells at 10 uM after 48 hrs by sulforhodamine B assay relative to control; type: functional
SK-MEL-2 = experiment: Cytotoxicity against human SK-MEL-2 cells at 10 uM after 48 hrs by sulforhodamine B assay relative to control; type: functional
MDA-MB-435 = experiment: Cytotoxicity against human MDA-MB-435 cells at 10 uM after 48 hrs by sulforhodamine B assay relative to control; type: functional
M14 = experiment: Cytotoxicity against human M14 cells at 10 uM after 48 hrs by sulforhodamine B assay relative to control; type: functional
Malme-3M = experiment: Cytotoxicity against human MALME-3M cells at 10 uM after 48 hrs by sulforhodamine B assay relative to control; type: functional
LOX IMVI = experiment: Cytotoxicity against human LOXIMVI cells at 10 uM after 48 hrs by sulforhodamine B assay relative to control; type: functional
SNB-75 = experiment: Cytotoxicity against human SNB75 cells at 10 uM after 48 hrs by sulforhodamine B assay relative to control; type: functional
U-251 = experiment: Cytotoxicity against human U251 cells at 10 uM after 48 hrs by sulforhodamine B assay relative to control; type: functional
SF-539 = experiment: Cytotoxicity against human SF539 cells at 10 uM after 48 hrs by sulforhodamine B assay relative to control; type: functional
SNB-19 = experiment: Cytotoxicity against human SNB19 cells at 10 uM after 48 hrs by sulforhodamine B assay relative to control; type: functional
SF-295 = experiment: Cytotoxicity against human SF295 cells at 10 uM after 48 hrs by sulforhodamine B assay relative to control; type: functional
SF-268 = experiment: Cytotoxicity against human SF268 cells at 10 uM after 48 hrs by sulforhodamine B assay relative to control; type: functional
SW-620 = experiment: Cytotoxicity against human SW620 cells at 10 uM after 48 hrs by sulforhodamine B assay relative to control; type: functional
KM12 = experiment: Cytotoxicity against human KM12 cells at 10 uM after 48 hrs by sulforhodamine B assay relative to control; type: functional
HT-29 = experiment: Cytotoxicity against human HT-29 cells at 10 uM after 48 hrs by sulforhodamine B assay relative to control; type: functional
HCT-15 = experiment: Cytotoxicity against human HCT15 cells at 10 uM after 48 hrs by sulforhodamine B assay relative to control; type: functional
HCT-116 = experiment: Cytotoxicity against human HCT116 cells at 10 uM after 48 hrs by sulforhodamine B assay relative to control; type: functional
HCC 2998 = experiment: Cytotoxicity against human HCC2998 cells at 10 uM after 48 hrs by sulforhodamine B assay relative to control; type: functional
COLO 205 = experiment: Cytotoxicity against human COLO205 cells at 10 uM after 48 hrs by sulforhodamine B assay relative to control; type: functional
NCI-H522 = experiment: Cytotoxicity against human NCI-H522 cells at 10 uM after 48 hrs by sulforhodamine B assay relative to control; type: functional
NCI-H460 = experiment: Cytotoxicity against human NCI-H460 cells at 10 uM after 48 hrs by sulforhodamine B assay relative to control; type: functional
NCI-H322M = experiment: Cytotoxicity against human NCI-H322M cells at 10 uM after 48 hrs by sulforhodamine B assay relative to control; type: functional
NCI-H23 = experiment: Cytotoxicity against human NCI-H23 cells at 10 uM after 48 hrs by sulforhodamine B assay relative to control; type: functional
NCI-H226 = experiment: Cytotoxicity against human NCI-H226 cells at 10 uM after 48 hrs by sulforhodamine B assay relative to control; type: functional
HOP-92 = experiment: Cytotoxicity against human HOP92 cells at 10 uM after 48 hrs by sulforhodamine B assay relative to control; type: functional
HOP-62 = experiment: Cytotoxicity against human HOP62 cells at 10 uM after 48 hrs by sulforhodamine B assay relative to control; type: functional
[4] = Cytotoxicity against human EKVX cells at 10 uM after 48 hrs by sulforhodamine B assay relative to control; type: functional
A549 = experiment: Cytotoxicity against human A549 cells at 10 uM after 48 hrs by sulforhodamine B assay relative to control; type: functional
SR = experiment: Cytotoxicity against human SR cells at 10 uM after 48 hrs by sulforhodamine B assay relative to control; type: functional
RPMI-8226 = experiment: Cytotoxicity against human RPMI8226 cells at 10 uM after 48 hrs by sulforhodamine B assay relative to control; type: functional
MOLT-4 = experiment: Cytotoxicity against human MOLT4 cells at 10 uM after 48 hrs by sulforhodamine B assay relative to control; type: functional
K562 = experiment: Cytotoxicity against human K562 cells at 10 uM after 48 hrs by sulforhodamine B assay relative to control; type: functional
HL-60(TB) = experiment: Cytotoxicity against human HL-60(TB) cells at 10 uM after 48 hrs by sulforhodamine B assay relative to control; type: functional
CCRF-CEM = experiment: Cytotoxicity against human CCRF-CEM cells at 10 uM after 48 hrs by sulforhodamine B assay relative to control; type: functional
PC-3 [5] = experiment: Cytotoxicity against human PC3 cells after 48 hrs by sulforhodamine B assay; type: functional, cell-based; details: PC-3, 48 h

Work on `O=C(CCN1CCCC1)Nc1ccc2c(c1)C(=O)c1cc(NC(=O)CCN3CCCC3)ccc1C2=O` yielded a GI50 [1] of 3.89 µM.
For `CCN(CC)CCC(=O)Nc1ccc2c(c1)C(=O)c1cc(NC(=O)CCN(CC)CC)ccc1C2=O`, the GI50 [1] was 2.57 µM.
With `CN1CCN(CC(=O)Nc2ccc3c(c2)C(=O)c2cc(NC(=O)CN4CCN(C)CC4)ccc2-3)CC1` the inhibition (Homo sapiens) was “inactive”, the Activity (CAKI-1) was 92.75% and the Activity (MDA-MB-468) was 98.39%. It also gave an Activity (T47D) of 103.63%, an Activity (BT-549) of 110.6% and an Activity [2] of 107.34%. It also gave an Activity (MDA-MB-231) of 108.13%, an Activity (MCF7) of 95.17% and an Activity (DU-145) of 117.23%. It also gave an Activity (PC-3 [3]) of 101.32%, an Activity (UO-31) of 89.84% and an Activity (TK-10) of 106.54%. The Activity (SN12C) was 100.48%, the Activity (RXF 393) was 110.09% and the Activity (ACHN) was 111.9%. The Activity (786-0) was 102.26%, the Activity (NCI/ADR-RES) was 102.76% and the Activity (OVCAR-8) was 111.5%. It also gave an Activity (OVCAR-5) of 119.06%, an Activity (OVCAR-4) of 111.66% and an Activity (OVCAR-3) of 125.59%. The Activity (IGROV-1) was 110.15%, the Activity (UACC-62) was 110.11% and the Activity (UACC-257) was 133.36%. It also gave an Activity (SK-MEL-5) of 103.25%, an Activity (SK-MEL-28) of 97.75% and an Activity (SK-MEL-2) of 119.93%. For the same compound, the Activity (MDA-MB-435) was 95.92%, the Activity (M14) was 106.48% and the Activity (Malme-3M) was 115.66%. It also gave an Activity (LOX IMVI) of 96.76%, an Activity (SNB-75) of 87.76% and an Activity (U-251) of 97.19%. It also gave an Activity (SF-539) of 107.96%, an Activity (SNB-19) of 101.36% and an Activity (SF-295) of 93.37%. The Activity (SF-268) was 115.79%, the Activity (SW-620) was 103.43% and the Activity (KM12) was 108.52%. The Activity (HT-29) was 95.51%, the Activity (HCT-15) was 106.48% and the Activity (HCT-116) was 94.2%. The Activity (HCC 2998) was 98.62%, the Activity (COLO 205) was 102.69% and the Activity (NCI-H522) was 90.02%. It also gave an Activity (NCI-H460) of 108.46%, an Activity (NCI-H322M) of 97.25% and an Activity (NCI-H23) of 99.17%. It also gave an Activity (NCI-H226) of 106.03%, an Activity (HOP-92) of 93.88% and an Activity (HOP-62) of 111.05%. For the same compound, the Activity [4] was 100.31%, the Activity (A549) was 106.99% and the Activity (SR) was 105.62%. It also gave an Activity (RPMI-8226) of 106.31%, an Activity (MOLT-4) of 96.58% and an Activity (K562) of 104.58%. For the same compound, the Activity (HL-60(TB)) was 100.43%, the Activity (CCRF-CEM) was 98.38% and the IC50 (PC-3 [5]) was > 30 µM.
